Key:
Mouse B16 melanoma cell [1] = assay: Quantification of the number of cells (alamarBlue), cell growth / cell toxicity; format: cell-based
Procedure: (§1) Mouse B16 melanoma cell was used. The cells were inoculated at 1×10^5 cells/well to a 6-well plate, and cultured with using a commercially available medium (trade name: EAGLE MEM, manufactured by Nissui Pharmaceutical Co., Ltd.) supplemented with 10% fetal bovine serum. The cells were cultured at 37° C., 5% CO2 and under completely saturated water-vapor atmosphere.
(§2) For determining the effect of hydroxyproline on cell growth and melanin content reduction, after culturing the cells for 24 hours, stock solutions of 4-trans-L-hydroxyproline, 4-trans-D-hydroxyproline, 4-cis-L-hydroxyproline or 4-cis-D-hydroxyproline were prepared and added in the same volume to the cells, further cultured for 3 days and used for the experiment. Meanwhile, as a control group, the same volume of water was added.
3 days after the addition of a solution of test compound, the medium was removed by suction. Eagle's-MEM containing the solution of 10% alamarBlue (trade name: BIOSOURCE, manufactured by Biosource International) was added and the reaction was allowed to occur at 37° C. Thirty minutes later, the fluorescence was measured with excitation wavelength of 544 nm and measurement wavelength of 590 nm. By having the obtained number as a relative value of the cell number, the ratio of number of cells (i.e. % number of cells) for a group added with the test compound compared to a group not added with the test compound (i.e. only the solvent was added) was calculated. Higher % number of cells indicates lower cell toxicity. When it is less than 80%, it was determined as “toxic.”
(§3) The equal amounts of 4-trans-L-hydroxyproline and 4-cis-D-hydroxyproline were mixed to produce the mixture solution of 4-trans-L-hydroxyproline and 4-cis-D-hydroxyproline, which was then provided for the experiments. Cell culture and quantification and evaluation of number of the cells and melanin were carried out in the same manner as the Examples above.
(§4) By using the mixture solution in which 4-trans-L-hydroxyproline and 4-cis-D-hydroxyproline were mixed at various ratio, test for determining cell growth and melanin content reduction was carried out. Cell culture and quantification and evaluation were carried out in the same manner as the Examples above.

Mouse B16 melanoma cell [2] = assay: Quantification of melanin (melanin content ratio, absorbance at 475 nm); format: cell-based; details: for effect on reducing melanin content (conclusion): 3.33 ppm up to 2690 ppm
Procedure: as §1, §2
The medium was removed by suction. After washing three times with the buffer (phosphate buffer solution 50 mM, pH 6.8), the cells were lysed by addition of 1 N NaOH, and the absorbance was measured at 475 nm. By having the obtained value as a relative value of the melanin content, the ratio of melanin content (%) for a group added with the test compound compared to a group not added with the test compound (i.e. only the solvent was added) was calculated. Lower ratio of melanin content means the higher inhibition effect on melanin production.
By using the measured value of melanin content that was obtained according to the measurement method above, percentage ratio of the melanin content was calculated by dividing the melanin content in the cells added with 4-trans-L-hydroxyproline, 4-trans-D-hydroxyproline, 4-cis-L-hydroxyproline, or 4-cis-D-hydroxyproline by the melanin content in the cells for control experiment, and the resulting value was taken as a ratio of melanin content.
as §3, §4

[3] = system: Chinese hamster V79 cells; details: cited from earlier work
[4] = FIG. 2, 100 ppm single compound, duplicate

O=C(O)[C@H]1C[C@@H](O)CN1 (stereo in doubt) [4-cis-D-hydroxyproline]
number of cells when the control was represented as 100% (Mouse B16 melanoma cell [1]; FIG. 1, 3.33 ppm, 3 days): 97% | number of cells when the control was represented as 100% (Mouse B16 melanoma cell [1]; FIG. 1, 11.1 ppm, 3 days): 98% | number of cells when the control was represented as 100% (Mouse B16 melanoma cell [1]; FIG. 1, 33.3 ppm, 3 days): 101% | number of cells when the control was represented as 100% (Mouse B16 melanoma cell [1]; FIG. 1, 333 ppm, 3 days): 92% | concentration up to which the number of cells was not significantly different from the control (no effect on survival) (Mouse B16 melanoma cell [1]; FIG. 1, 3 days): ≤ 333 ppm | number of cells when the control was represented as 100% (Mouse B16 melanoma cell [1]; FIG. 3, 33.3 ppm, duplicate): 93% | number of cells when the control was represented as 100% (Mouse B16 melanoma cell [1]; FIG. 3, 50 ppm, duplicate): 92% | number of cells when the control was represented as 100% (Mouse B16 melanoma cell [1]; FIG. 3, 100 ppm, duplicate): 91% | number of cells when the control was represented as 100% (Mouse B16 melanoma cell [1]; FIG. 3, 333 ppm, duplicate): 88% | effect on reducing melanin content (conclusion) (Mouse B16 melanoma cell [2]; FIG. 1): effect on reducing melanin content in a concentration-dependent manner | melanin content ratio (Mouse B16 melanoma cell [2]; FIG. 1, 3.33 ppm, 3 days): 100% | melanin content ratio (Mouse B16 melanoma cell [2]; FIG. 1, 11.1 ppm, 3 days): 98% | melanin content ratio (Mouse B16 melanoma cell [2]; FIG. 1, 33.3 ppm, 3 days): 96% | melanin content ratio (Mouse B16 melanoma cell [2]; FIG. 1, 333 ppm, 3 days): 32% | inhibition of melanin synthesis / melanin content (conclusion) (Mouse B16 melanoma cell [2]; FIG. 2, 4-cis-D starting from 33.3 ppm, mixture with same amount of 4-cis-D): prominently inhibit melanin synthesis in a concentration-dependent manner | melanin content ratio (Mouse B16 melanoma cell [2]; FIG. 2, 33.3 ppm, duplicate): 90% | melanin content ratio (Mouse B16 melanoma cell [2]; FIG. 2, 50 ppm, duplicate): 85% | melanin content ratio (Mouse B16 melanoma cell [2]; [4]): 72% | melanin content ratio (Mouse B16 melanoma cell [2]; FIG. 2, 333 ppm, duplicate): 32% | melanin content ratio (Mouse B16 melanoma cell [2]; FIG. 3, 33.3 ppm, duplicate): 92% | melanin content ratio (Mouse B16 melanoma cell [2]; FIG. 3, 50 ppm, duplicate): 84% | melanin content ratio (Mouse B16 melanoma cell [2]; FIG. 3, 100 ppm, duplicate): 75% | melanin content ratio (Mouse B16 melanoma cell [2]; FIG. 3, 333 ppm, duplicate): 37%

O=C(O)[C@@H]1C[C@H](O)CN1 (stereo in doubt) [4-cis-L-hydroxyproline]
number of cells when the control was represented as 100% (Mouse B16 melanoma cell [1]; FIG. 1, 3.33 ppm, 3 days): 93% | number of cells when the control was represented as 100% (Mouse B16 melanoma cell [1]; FIG. 1, 11.1 ppm, 3 days): 92% | number of cells when the control was represented as 100% (Mouse B16 melanoma cell [1]; FIG. 1, 33.3 ppm, 3 days): 84% | concentration up to which the number of cells was not significantly different from the control (no effect on survival) (Mouse B16 melanoma cell [1]; FIG. 1, 3 days): up to 33.3 ppm | number of cells when the control was represented as 100% (Mouse B16 melanoma cell [1]; FIG. 2, 33.3 ppm, duplicate): 97% | number of cells when the control was represented as 100% (Mouse B16 melanoma cell [1]; FIG. 2, 50 ppm, duplicate): 93% | number of cells when the control was represented as 100% (Mouse B16 melanoma cell [1]; [4]): 95% | number of cells when the control was represented as 100% (Mouse B16 melanoma cell [1]; FIG. 2, 333 ppm, duplicate): 89% | effect on reducing melanin content (conclusion) (Mouse B16 melanoma cell [2]; FIG. 1): effect on reducing melanin content in a concentration-dependent manner | melanin content ratio (Mouse B16 melanoma cell [2]; FIG. 1, 3.33 ppm, 3 days): 92% | melanin content ratio (Mouse B16 melanoma cell [2]; FIG. 1, 11.1 ppm, 3 days): 83% | melanin content ratio (Mouse B16 melanoma cell [2]; FIG. 1, 33.3 ppm, 3 days): 30%

O=C(O)[C@H]1C[C@H](O)CN1 (stereo in doubt) [4-trans-D-hydroxyproline]
number of cells when the control was represented as 100% (Mouse B16 melanoma cell [1]; FIG. 1, 3.33 ppm, 3 days): 98% | number of cells when the control was represented as 100% (Mouse B16 melanoma cell [1]; FIG. 1, 11.1 ppm, 3 days): 100% | number of cells when the control was represented as 100% (Mouse B16 melanoma cell [1]; FIG. 1, 33.3 ppm, 3 days): 101% | number of cells when the control was represented as 100% (Mouse B16 melanoma cell [1]; FIG. 1, 333 ppm, 3 days): 105% | number of cells when the control was represented as 100% (Mouse B16 melanoma cell [1]; FIG. 1, 2690 ppm, 3 days): 109% | effect on reducing melanin content (conclusion) (Mouse B16 melanoma cell [2]; FIG. 1): no effect on reducing melanin content | melanin content ratio (Mouse B16 melanoma cell [2]; FIG. 1, 3.33 ppm, 3 days): 97% | melanin content ratio (Mouse B16 melanoma cell [2]; FIG. 1, 11.1 ppm, 3 days): 99% | melanin content ratio (Mouse B16 melanoma cell [2]; FIG. 1, 33.3 ppm, 3 days): 99% | melanin content ratio (Mouse B16 melanoma cell [2]; FIG. 1, 333 ppm, 3 days): 101% | melanin content ratio (Mouse B16 melanoma cell [2]; FIG. 1, 2690 ppm, 3 days): 110%

O=C(O)[C@@H]1C[C@@H](O)CN1 (stereo in doubt) [4-trans-L-hydroxyproline]
number of cells when the control was represented as 100% (Mouse B16 melanoma cell [1]; FIG. 1, 3.33 ppm, 3 days): 95% | number of cells when the control was represented as 100% (Mouse B16 melanoma cell [1]; FIG. 1, 11.1 ppm, 3 days): 103% | number of cells when the control was represented as 100% (Mouse B16 melanoma cell [1]; FIG. 1, 33.3 ppm, 3 days): 99% | number of cells when the control was represented as 100% (Mouse B16 melanoma cell [1]; FIG. 1, 333 ppm, 3 days): 101% | number of cells when the control was represented as 100% (Mouse B16 melanoma cell [1]; FIG. 1, 2690 ppm, 3 days): 94% | number of cells when the control was represented as 100% (Mouse B16 melanoma cell [1]; FIG. 2, 33.3 ppm, duplicate): 95% | number of cells when the control was represented as 100% (Mouse B16 melanoma cell [1]; FIG. 2, 50 ppm, duplicate): 100% | number of cells when the control was represented as 100% (Mouse B16 melanoma cell [1]; [4]): 98% | number of cells when the control was represented as 100% (Mouse B16 melanoma cell [1]; FIG. 2, 333 ppm, duplicate): 102% | number of cells when the control was represented as 100% (Mouse B16 melanoma cell [1]; FIG. 3, 333 ppm, duplicate): 100% | number of cells when the control was represented as 100% (Mouse B16 melanoma cell [1]; FIG. 3, 480 ppm, duplicate): 96% | number of cells when the control was represented as 100% (Mouse B16 melanoma cell [1]; FIG. 3, 666 ppm, duplicate): 102% | number of cells when the control was represented as 100% (Mouse B16 melanoma cell [1]; FIG. 3, 1332 ppm, duplicate): 99% | effect on reducing melanin content (conclusion) (Mouse B16 melanoma cell [2]; FIG. 1): no effect on reducing melanin content | melanin content ratio (Mouse B16 melanoma cell [2]; FIG. 1, 3.33 ppm, 3 days): 103% | melanin content ratio (Mouse B16 melanoma cell [2]; FIG. 1, 11.1 ppm, 3 days): 108% | melanin content ratio (Mouse B16 melanoma cell [2]; FIG. 1, 33.3 ppm, 3 days): 105% | melanin content ratio (Mouse B16 melanoma cell [2]; FIG. 1, 333 ppm, 3 days): 104% | melanin content ratio (Mouse B16 melanoma cell [2]; FIG. 1, 2690 ppm, 3 days): 107% | melanin content ratio (Mouse B16 melanoma cell [2]; FIG. 2, 33.3 ppm, duplicate): 103% | melanin content ratio (Mouse B16 melanoma cell [2]; FIG. 2, 50 ppm, duplicate): 104% | melanin content ratio (Mouse B16 melanoma cell [2]; [4]): 108% | melanin content ratio (Mouse B16 melanoma cell [2]; FIG. 2, 333 ppm, duplicate): 112% | melanin content ratio (Mouse B16 melanoma cell [2]; FIG. 3, 333 ppm, duplicate): 103% | melanin content ratio (Mouse B16 melanoma cell [2]; FIG. 3, 480 ppm, duplicate): 99% | melanin content ratio (Mouse B16 melanoma cell [2]; FIG. 3, 666 ppm, duplicate): 107% | melanin content ratio (Mouse B16 melanoma cell [2]; FIG. 3, 1332 ppm, duplicate): 102%

Oc1ccc(O)cc1 [Hydroquinone, hydroquinone]
mutagenic activity [3]: mutagenic activity

From patent US20120122951A1 (priority 2009, published 2012)
